The source of these data is US12186329B2 (President and Fellows of Harvard College, priority 2018, dated 2025).

Read-outs that look alike come from different tables or passages of the source.

One data set has as its system Caco-2 cells. Briefly: Cell viability assay in Caco-2 cells. The class given is cell-based, human. To be noted: overnight incubation. The protocol:
Cell viability assay. […] The concentration of DMSO was kept constant and used as a negative control. […] Cell viability was measured in Countess II automated cell counter (Invitrogen). Percentage relative viability was calculated compared to DMSO control.

Data set [1] is described as follows: In vivo CA7S oral gavage: CA7S concentration in tissues and blood.
Procedure: Extraction. Cecal, liver, and human fecal samples (approximately 50 mg each) and mouse portal veins were pre-weighed in lysis tubes containing ceramic beads (Precellys lysing kit tough micro-organism lysing VK05 tubes for cecal, fecal samples, and portal veins; tissue homogenizing CIKMix tubes for liver samples; Bertin technologies, Montigny-le-Bretonneux, France). 400p L of methanol containing 10 μM internal standard (GCA) was added and the tubes were homogenized in a MagNA Lyser (6000 speed for 90 s*2, 7000 speed for 60 s). 50 μl of mouse serum was collected in Eppendorf tubes, followed by addition of 50 μL of methanol containing 10 μM internal standard (GCA). After vortexing for 1 min, the sample was cooled to −20° C. for 20 min. All methanol-extracted tissue samples were centrifuged at 4° C. for 30 min at 15,000 rpm. […]
UPLC-MS. […] Samples were analyzed using an Agilent Technologies 12990 Infinity 11 UPLC system coupled online to an Agilent Technologies 6120 Quadrupole LC/MS spectrometer in negative electrospray mode with a scan range of 350-550 m/z (MSD settings: fragmentor—250, gain—3.00, threshold—150, Step size—0.10, speed (u/sec)—743). […] For quantification of the analytes, standard curves were obtained using known bile acids, and then each analyte was quantified based on the standard curve and normalized based on the internal standard. […]
The test system of data set [2] is human intestinal L-cells (NCI-H716). In words: GLP-1 secretion in human intestinal L-cells (NCI-H716). The class given is cell-based. The following applies: for GLP-1 secretion in vitro: NCI-H716 L-cells, 2 hours; for GLP-1 secretion in vitro by CA7S extracted from cecal contents of SG mice: material extracted from mouse cecum.
In data set [3] the test system is DIO mice. Briefly: In vivo enteral (duodenal and rectal) treatment of DIO mice: glucose, GLP-1, insulin, TGR5 expression. To be noted: for Systemic GLP-1 levels: within 15 min. More on the design: species or system mouse.
The test system of data set [4] is DIO mice. In words: CA7S gavage and OGTT after lentiviral shRNA knockdown of GLP-1R. To be noted: GLP-1R shRNA knockdown, gavage 100 mg/kg, vs PBS. The data set is classed as in vivo, mouse. The method, then: (§1) Age matched, […] mice were kept on HFD and their blood glucose levels were monitored until average fasting glucose levels were >160 mg/dL. Animals were fasted for 4 hours on the day of the experiment. […] Three hours later, an OGTT was performed using an oral gavage of 2 mg/g oral D-glucose (Sigma-Aldrich, St. Louis, Mo.). Blood glucose levels were measured at baseline and at minutes 15, 30, 60 and 120 with a OneTouch glucometer.

For data set [5], the system named is DIO mice. Briefly: In vivo CA7S gavage and oral glucose tolerance test (OGTT). Details: species or system mouse. The following applies: gavage 100 mg/kg, vs vehicle. The method, then: as §1
For data set [6], the system named is DIO mice. Briefly: In vivo CA7S oral gavage: systemic GLP-1. More on the design: species or system mouse. The following applies: oral gavage 100 mg/kg, 5 hours post-treatment, vs PBS.
In the next data set the test system is NCI-H716 cells. In words: Calcium measurement in NCI-H716 cells. The data set is classed as cell-based, human. The method, then:
The cells were allowed to grow for 2 days in complete RPMI media. […] The concentration of DMSO was kept constant throughout the treatments and used as a negative control. Cells were incubated at 37° C. in an atmosphere of 5% CO2 for 2 hours. […] Cells on cell culture plates were placed on ice and gently washed with PBS (GenClone).

A further data set in a line: pH stability test. The data set is classed as physicochemical. The following applies: pH 1, 7.4 and 9, overnight at 37° C. The protocol: pH stability test. […] Briefly, buffers of pH 1 (0.1 M HCl), pH 7.4 (PBS) and pH 9 (a 10 mM solution of ammonium formate adjusted to pH 9 with ammonium hydroxide) (all from Sigma) were prepared.
A short description of data set [7]: CA7S concentration in tissues and blood after enteral CA7S (UPLC-MS bile acid analysis).
Setting [8] is: listed as Cholic acid-7-sulfate.

For the molecule `C[C@H](CCC(=O)O)[C@H]1CC[C@H]2[C@@H]3[C@H](OS(=O)(=O)O)C[C@@H]4C[C@H](O)CC[C@]4(C)[C@H]3C[C@H](O)[C@]12C` [CA7S, cholic acid-7-sulfate], the “Toxicity in intestinal Caco cells” value in the data set with Caco-2 cells is “no toxicity”. Besides, the “CA7S concentration (mean ± SEM), portal vein” value was 13.2 ± 7.7 pmol/µL in [1] (DIO mice, CA7S gavage 100 mg/kg, 5 hours) and 6.13 ± 2.11 pmol/mg in data set [7] (DIO mice, enteral CA7S). Besides, the “CA7S accumulation in cecal contents (mean value)” value in data set [1] (oral gavage 100 mg/kg, 5 hours post-gavage) is recorded as 15,000 picomol/mg wet mass. Moreover, the “GLP-1 secretion after siRNA-mediated knockdown of TGR5” value in data set [2] is “abolished GLP-1 secretion”. In addition, the entries for the “GLP-1 secretion in vitro” value in data set [2] and in [2] (setting [8]) were “to a similar degree as TDCA in a dose-dependent manner” and “induces GLP-1 secretion in vitro better than the known GLP-1 inducer TDCA”, respectively. Further, the “GLP-1 secretion in vitro by CA7S extracted from cecal contents of SG mice” value in data set [2] was “also induced GLP-1 secretion in vitro”; in data set [2] (listed as cholic acid-7-sulfate), “exhibit activity inducing GLP-1 secretion in vitro”. For the same molecule, in the data set on DIO mice [3] (DIO mice, enteral, vs PBS), the Insulin levels entry was “increased insulin levels”. In addition, the “TGR5 expression in colon and terminal ileum” value in the data set with DIO mice [3] (DIO mice, enteral CA7S) is recorded as “increased in the colon, but not the terminal ileum”. The Blood glucose levels entry in the data set with DIO mice [3] (HFD-fed DIO mice, enteral 1 mg, 15 min, vs PBS) is recorded as “reduced blood glucose levels”. Moreover, the “Systemic GLP-1 levels” value in the data set on DIO mice [3] (HFD-fed DIO mice, enteral 1 mg, vs PBS) is on record as “increased systemic GLP-1 levels”; in the data set on DIO mice [3] (HFD-fed DIO mice, enteral 1 mg, vs PBS, listed as cholic acid-7-sulfate), “induced GLP-1 levels”. Also, the “Glycemic curves and AUCs in OGTT in the absence of GLP-1R” value in the data set with DIO mice [4] was “no significant differences in the glycemic curves or AUCs”. In addition, the “Total and incremental areas under the glucose versus time curves (AUC and iAUC)” value in the data set on DIO mice [5] is recorded as “significantly decreased”. In the data set with DIO mice [6], the “Systemic levels of GLP-1” value is reported as “increased”. In addition, the “Calcium levels in L-cells” value is listed as “dose-dependent increase in calcium levels” in the data set on NCI-H716 cells and “increased calcium levels” in the data set with NCI-H716 cells (setting [8]). Also, the “Stability at different pHs” value in “pH stability test” is recorded as “stable in a wide range of pHs”. Further, the “CA7S concentration (mean ± SEM), cecum” value in data set [7] (DIO mice, enteral CA7S) was found to be 2577 ± 185 pmol/mg. Also, the “CA7S concentration (mean ± SEM), systemic blood” value in [7] (DIO mice, enteral CA7S) turned out to be 0.5 ± 0.2 pmol/µL. Besides, the “CA7S in cecal contents (average)” value in [7] (administration of 1 mg via duodenal and rectal catheters) amounted to 2500 pmol/mg wet mass. For the same molecule, the “cholic acid-7-sulfate in the cecum” value in data set [7] (dosing with 1 mg) is approximately 2500 µM. For the same molecule, the “Leak into systemic circulation and portal vein” value in data set [7] (ectopic (enteral) introduction) is “only minor amounts to leak into systemic circulation and in the portal vein”.

Take `C[C@H](CCC(=O)NCCS(=O)(=O)O)[C@H]1CC[C@H]2[C@@H]3CC[C@@H]4C[C@H](O)CC[C@]4(C)[C@H]3C[C@H](O)[C@]12C` [TDCA, taurodeoxycholic acid, reference compound]: the “GLP-1 secretion after siRNA-mediated knockdown of TGR5” value in [2] (NCI-H716, TGR5 siRNA) is given as “abolished”.

For the molecule `C[C@H](CCC(=O)O)[C@H]1CC[C@H]2[C@@H]3[C@H](O)C[C@@H]4C[C@H](O)CC[C@]4(C)[C@H]3C[C@H](O)[C@]12C` [CA, cholic acid, reference compound], the “GLP-1 secretion in vitro” value in data set [2] was “had no effect on GLP-1 secretion”; in data set [2] (listed as cholic acid) it was “had no effect”.
